# Assay results from US4699928A, “Fluoroallylamine derivatives” (Merrell Dow Pharmaceuticals Inc., priority 1986, dated 1987).
# How the values were obtained:
# [1] = tested on: MAO-B versus MAO-A; experiment: Selectivity of inhibition of MAO-B versus MAO-A in vitro (14C phenethylamine / 14C 5-hydroxytryptamine); type: biochemical; details: rat, brain mitochondria
# Procedure: Mitochondria are prepared from rat brain by homogenation in phosphate buffer (0.1 M, pH 7.2) followed by differential centrifugation. The mitochondria are suspended in the same buffer, the test compound is added at the desired concentration, and the system is incubated. At different time intervals, aliquots are taken and MAO activity is measured using ^14 C p-tyramine (a mixed substrate) as the substrate (See A. Christmas et al., supra).
# (C) The selectivity of a compound of Formula I with respect to inhibition of MAO-A and MAO-B can be determined by repeating the procedure of Part B and measuring the MAO activity using ^14 C 5-hydroxytryptamine (a preferred substrate for MAO-A) and ^14 C phenethylamine (a preferred substrate for MAO-B) as the substrate.
# [2] = tested on: brain monoamines and their metabolites; experiment: Inhibition of MAO in vivo: brain monoamines and their metabolites (HPLC); parameters: species or system male Sprague-Dawley rats; details: for DOPAC, brain / HVA, brain / 5HIAA, brain / NE, brain / 5-HT, brain / DA (dopamine), brain: 18 h, ± S.E.M.; for DOPAC, brain: control 80 ± 3; for HVA, brain: control 81 ± 3; for 5HIAA, brain: control 347 ± 8; for NE, brain: control 369 ± 18; for 5-HT, brain: control 1156 ± 52; for DA (dopamine), brain: control 840 ± 27
# Procedure: The ability of a compound of Formula I to inhibit MAO can be determined in vivo using brain and heart samples obtained from the ex vivo study reported in Example 9. Monoamines and their deaminated metabolites were determined by HPLC with electrochemical detection by the method of J. Wagner et al, J. Neurochem. 38 1241-1254.
# When (Z)-2-(2',4'-dichlorophenoxy)methyl-3-fluoroallylamine is tested according to the above-described procedure, the results given in Tables IV and V are obtained. In these tables the following abbreviations are used: […]
smiles,measurement,setting,value
"NC/C(=C/F)COc1ccc(Cl)cc1Cl [(z)-2-(2',4'-dichlorophenoxy)methyl-3-fluoroallylamine]",Ratio B:A (inhibitory activity against MAO-B versus MAO-A),[1],200
same,"DOPAC, brain",[2]; 1 mg/kg p.o.,75 ± 11 ng/g
same,"HVA, brain",[2]; 1 mg/kg p.o.,94 ± 15 ng/g
same,"5HIAA, brain",[2]; 1 mg/kg p.o.,371 ± 19 ng/g
same,"NE, brain",[2]; 1 mg/kg p.o.,386 ± 18 ng/g
same,"5-HT, brain",[2]; 1 mg/kg p.o.,1218 ± 66 ng/g
same,"DA (dopamine), brain","[2]; 1 mg/kg p.o., p <0.05",945 ± 35 ng/g
same,"DOPAC, brain",[2]; 2.5 mg/kg p.o.,70 ± 6 ng/g
same,"HVA, brain",[2]; 2.5 mg/kg p.o.,75 ± 7 ng/g
same,"5HIAA, brain",[2]; 2.5 mg/kg p.o.,337 ± 15 ng/g
same,"NE, brain",[2]; 2.5 mg/kg p.o.,409 ± 4 ng/g
same,"DA (dopamine), brain",[2]; 2.5 mg/kg p.o.,896 ± 31 ng/g
same,"5-HT, brain",[2]; 2.5 mg/kg p.o.,1119 ± 64 ng/g
same,"HVA, brain",[2]; 5 mg/kg p.o.,83 ± 7.2 ng/g
same,"NE, brain",[2]; 5 mg/kg p.o.,415 ± 18 ng/g
same,"5-HT, brain",[2]; 5 mg/kg p.o.,1340 ± 116 ng/g
same,"DOPAC, brain","[2]; 5 mg/kg p.o., p <0.01",65 ± 3 ng/g
same,"DA (dopamine), brain","[2]; 5 mg/kg p.o., p <0.02",943 ± 21 ng/g
same,"5HIAA, brain","[2]; 5 mg/kg p.o., p <0.05",379 ± 10 ng/g
same,"5HIAA, brain",[2]; 10 mg/kg p.o.,343 ± 14 ng/g
same,"DA (dopamine), brain",[2]; 10 mg/kg p.o.,875 ± 16 ng/g
same,"5-HT, brain",[2]; 10 mg/kg p.o.,1297 ± 100 ng/g
same,"HVA, brain","[2]; 10 mg/kg p.o., p <0.02",53 ± 10 ng/g
same,"NE, brain","[2]; 10 mg/kg p.o., p <0.02",439 ± 15 ng/g
same,"5-HT, in words",[2]; 25 mg/kg dose,Significant increases
same,"HVA, brain",[2]; 25 mg/kg p.o.,75 ± 8 ng/g
same,"NE, brain","[2]; 25 mg/kg p.o., p <0.001",496 ± 12 ng/g
same,"DA (dopamine), brain","[2]; 25 mg/kg p.o., p <0.001",1087 ± 29 ng/g
same,"5-HT, brain","[2]; 25 mg/kg p.o., p <0.001",1623 ± 48 ng/g
same,"5HIAA, brain","[2]; 25 mg/kg p.o., p <0.005",404 ± 12 ng/g
same,"DOPAC, brain","[2]; 25 mg/kg p.o., p <0.01",54 ± 6 ng/g
same,"Norepinephrine (NE) concentrations, in words",[2]; 10 and 25 mg/kg dose,increased significantly
same,"dihydroxyphenylacetic acid in the brain, in words",[2]; following the 5 mg/kg dose,significant reductions
same,"dopamine in the brain, in words",[2]; following the 5 mg/kg dose,increases in dopamine
same,"selectivity of action, in words",[2]; lower doses (MAO-B) and higher doses (MAO-A),selectivity of action against MAO-B at the lower doses and a small degree of MAO-A inhibition occurring at the higher doses
